Our source for the EC50 and EC90 values is US20240252527A9, “NUCLEOSIDE DRUGS FOR THE TREATMENT OR PREVENTION OF CORONAVIRUS INFECTION AND THEIR USES” (Miracure Biotechnology Limited, priority 2022, published 2024).

The subject of one assay is 229E. In words: 229E MRC5 CPE assay (cytopathic experiment). The assay is classed as cell-based, coronavirus 229E (HCoV-229E). As for the experimental part:
(§1) Cells were seeded into microplates at a certain density and cultured overnight in a incubator at 5% CO2, 37° C. The next day, double-diluted compound and virus were added. It was set up a cell control group (cells without treatment with a compound or virus infection), a virus control group (cells infected with virus, no compound treatment) and a culture medium control group (medium only). Cells were cultured in the incubator for 3 days (229E) or 7 days (OC43). Cytotoxicity experiments were performed under the same conditions as antiviral experiments, but without virus infection. Cell viability was tested using a cell viability assay kit Cell Titer Glo (Promega).
(§2) The antiviral activity and cytotoxicity of the compounds were expressed by the inhibition rate (%) and cell viability (%) of the compounds against virus-induced cytopathic effects at different concentrations, respectively. Nonlinear fitting analysis on the inhibition rate and cell viability of the compounds were carried out with the GraphPad Prism, and the half effective concentration (EC50), the […] effective concentration (EC90), the half cytotoxic concentration (CC50) and the 90% cytotoxic concentration of the compound […] values were calculated.
In general terms: Damage to the host cells serves as the signal in cytopathic effect assays.

The subject of a further assay is OC43. The assay can be described thus: OC43 Huh7 CPE assay (cytopathic experiment). In kind it is cell-based, coronavirus OC43 (HCoV-OC43). Conditions: Betacoronavirus 1, OC43, Huh-7, 168 h; for EC50: read-out: OC43 Huh7 CPE assay (μM) EC50; for EC90: read-out: OC43 Huh7 CPE assay (μM) EC90. As for the experimental part:
as §1, §2

Where [1] appears, read: Human coronavirus 229E, MRC5, 72 h, read-out: 229E MRC5 CPE assay (μM) EC50.
[2] abbreviates: Human coronavirus 229E, MRC5, 72 h, read-out: 229E MRC5 CPE assay (μM) EC90.
Setting [3] is: Human coronavirus 229E, MRC5, 72 h; read-out: 229E MRC5 CPE assay (μM) EC50.
[4] abbreviates: Human coronavirus 229E, MRC5, 72 h; read-out: 229E MRC5 CPE assay (μM) EC90.

SMILES strings stand for the structures. Where two headings read alike, the source gives them in different places.

As for `CCCN(CCC)S(=O)(=O)c1ccc(C(=O)OCOP(=O)(OCOC(=O)c2ccc(S(=O)(=O)N(CCC)CCC)cc2)OC[C@H]2O[C@@](C#N)(c3ccc4c(N)ncnn34)[C@H](O)[C@@H]2O)cc1` [Compound 164], the 50% effective concentration (EC50) with 229E (setting [1]) and with OC43 was over 0.5 µM each time. Besides, the concentration for an effect of 90% (EC90) with 229E (setting [2]) and in the assay on OC43 was over 0.5 µM in each case.

Take `CCCC(CCC)C(=O)OCNc1ncnn2c([C@]3(C#N)O[C@H](COP(=O)(OCOC(=O)C(CCC)CCC)OCOC(=O)C(CCC)CCC)[C@@H](O)[C@H]3O)ccc12` [Compound 155]: the EC50 with 229E (setting [1]) was 0.1 to 0.5 µM; in the assay on OC43, over 0.5 µM. Also, the 90% effect concentration (EC90) with 229E (setting [2]) and in the assay with OC43 was over 0.5 µM in each case.

For the molecule `CCC(CC)COC(=O)[C@H](C)NP(=O)(OCOC(=O)c1cccnc1)OC[C@H]1O[C@@](C#N)(c2ccc3c(N)ncnn23)[C@H](O)[C@@H]1O` (stereo partly drawn) [Compound 175], the EC50 in the assay on 229E (setting [1]) and in the assay on OC43 was over 0.5 µM in each case. In addition, the EC90 in the assay with 229E (setting [2]) and in the assay on OC43 was over 0.5 µM each time.

For the molecule `CC(C)(C)C(=O)OCO[P@@](=O)(OC[C@H]1O[C@@](C#N)(c2ccc3c(N)ncnn23)[C@H](O)[C@@H]1O)Oc1cccc2ccccc12` [Compound 216], the concentration giving a half-maximal response (EC50) in the assay on 229E (setting [3]) and with OC43 was over 0.5 µM in each case. In addition, the concentration for an effect of 90% (EC90) in the assay on 229E (setting [4]) and in the assay with OC43 was over 0.5 µM in each case.

In the case of `CCCN(CCC)S(=O)(=O)c1ccc(C(=O)OCOP(=O)(NC(C)(C)C(=O)OC(C)C)OC[C@H]2O[C@@](C#N)(c3ccc4c(N)ncnn34)[C@H](O)[C@@H]2O)cc1` (stereo partly drawn) [Compound 163], the EC50 in the assay with 229E (setting [1]) and in the assay with OC43 was over 0.5 µM in each case. Besides, the EC90 in the assay with 229E (setting [2]) and in the assay with OC43 was over 0.5 µM each time.

Turning to `N#C[C@@]1(c2ccc3c(N)ncnn23)O[C@H](COP(=O)(OCOC(=O)C2CCCC2)OCOC(=O)C2CCCC2)[C@@H](O)[C@H]1O` [Compound 265], in the assay with 229E (setting [1]), the EC50 was over 0.5 µM. Besides, the EC90 with 229E (setting [2]) was over 0.5 µM.

As for `CC(C)(C)C(=O)O[C@@H]1[C@@H]2O[P@@](=O)(O)OC[C@H]2O[C@@]1(C#N)c1ccc2c(N)ncnn12` [Compound 199], the EC50 with 229E (setting [1]) and in the assay on OC43 was over 0.5 µM throughout. The EC90 in the assay with 229E (setting [2]) and in the assay on OC43 was over 0.5 µM in each case.

In the case of `CC(C)(C)C(=O)OCO[P@](=O)(OC[C@H]1O[C@@](C#N)(c2ccc3c(N)ncnn23)[C@H](O)[C@@H]1O)Oc1cccc2ccccc12` [Compound 217], the EC50 in the assay on 229E (setting [3]) and in the assay on OC43 was over 0.5 µM in each case. In addition, the EC90 in the assay on 229E (setting [4]) and with OC43 was over 0.5 µM in each case.

On to `CCCC(CCC)C(=O)OCO[P@](=O)(N[C@@H](C)C(=O)OC)OC[C@H]1O[C@@](C#N)(c2ccc3c(N)ncnn23)[C@H](O)[C@@H]1O` [Compound 095], for which the half-maximal effective concentration (EC50) in the assay on 229E (setting [1]) and with OC43 was under 0.1 µM throughout. The EC90 in the assay on 229E (setting [2]) and in the assay with OC43 was 0.1 to 0.5 µM each time.

Turning to `CCC(CC)COC(=O)[C@H](C)N[P@]1(=O)OC[C@H]2O[C@@](C#N)(c3ccc4c(N)ncnn34)[C@H](O)[C@@H]2O1` [Compound 126], the EC50 with 229E (setting [1]) and with OC43 was under 0.1 µM in each case. Also, the EC90 with 229E (setting [2]) and in the assay with OC43 was 0.1 to 0.5 µM each time.

Take `CCCC(CCC)C(=O)OCO[P@](=O)(OC[C@H]1O[C@@](C#N)(c2ccc3c(N)ncnn23)[C@H](O)[C@@H]1O)Oc1ccc(C[C@H](NC(=O)OCc2ccccc2)C(=O)OC2CCCC2)cc1` [Compound 226]: the EC50 in the assay on 229E (setting [3]) and in the assay with OC43 was over 0.5 µM each time. Also, the 90% effect concentration (EC90) with 229E (setting [4]) and in the assay on OC43 was over 0.5 µM each time.

In the case of `N#C[C@@]1(c2ccc3c(N)ncnn23)O[C@@H]2CO[P@](=O)(OCOC(=O)CCCc3ccccc3)O[C@H]2[C@H]1O` [Compound 263], the EC50 with 229E (setting [1]) was under 0.1 µM; in the assay with OC43, 0.1 to 0.5 µM. The results for the EC90 in the assay on 229E (setting [2]) and with OC43 were under 0.1 µM and over 0.5 µM, respectively.

For `N#C[C@@]1(c2ccc3c(N)ncnn23)O[C@H](COP(=O)(OCOC(=O)OC2CCCC2)OCOC(=O)OC2CCCC2)[C@@H](O)[C@H]1O` [Compound 277], the concentration giving a half-maximal response (EC50) in the assay with 229E (setting [1]) was under 0.1 µM. Moreover, in the assay on 229E (setting [2]), the EC90 lay within 0.1 to 0.5 µM.

Broadly, the EC50 is the concentration needed to bring the measured effect to its halfway point. The term EC90 denotes the point of the concentration-response curve where the effect stands at 90%.
